Data published in patent US20250230226A1, “PLXDC1/PLXDC2 ACTIVATORS AND THEIR USE IN THE TREATMENT OF BLOOD VESSEL DISORDERS” (THE REGENTS OF THE UNIVERSITY OF CALIFORNIA, priority 2019, published 2025).

Experiments:
[1] = system: CT26.CL25 colon cancer tumor endothelial cells; test: Colon CT26 ex vivo model of tumor angiogenesis; format: cell-based, mouse; conditions: for 48 hrs (morphology observations after 48 hours): Conc. 40 μm; for cytotoxicity at 40 µM: Mus musculus, Endothelial cell, 48 h, read-out: Cell death
Method: An ex vivo tumor angiogenesis model was developed to test the efficacy of anti-cancer candidate agents. The following protocol describes the Ex Vivo Tumor Angiogenesis Model.
• 1. The day before the experiment, all necessary tools were sprayed with 70% ethanol and sterilized under UV light overnight, including blade, dissecting and micro-dissecting scissors and […]. 24-well dishes were placed at 4° C. to pre-chill plates and Matrigel was thawed, 24 hours before tumor dissection. • 2. 70% ethanol was sprayed on working bench. Two sterile petri dishes were prepared with 10 ml sterile PBS. The following steps 3 and 4 are necessary for mouse tumor models. For fresh human tumor, steps 3 and 4 are skipped. • 3. The tumor-bearing mice were euthanized. 70% ethanol was sprayed on the mouse and the tumor was removed using sterilized dissecting tools (avoid the fur). The tumor was rinsed in petri dish with sterile PBS to remove ethanol and fur. The tumor was transferred to a new petri dish with PBS for dissection. The dish is placed on ice. • 4. Pre-chilled sterile pipet tips were used to seed regular Matrigel in 24 well plates on ice. Matrigel (30 μl) was dropped in the middle of each well without touching the edge of the well (avoid introducing bubbles if possible). • 5. The tumor was cut in halves using the sterile blade. Healthy tumor tissue that is not necrotic and is within the tumor capsule was identified and isolated. The healthy tumor tissue was cut into small pieces. For instance, a suitable size for the tumor tissue is 0.5 mm (H)×0.5 mm (L)×0.3 mm (D) with a total volume of 0.075 mm^3. • 6. Each tumor piece was gently transferred and embedded in the Matrigel drop in the 24-well plate. The embedded piece was placed in the bottom and middle of each Matrigel drop. The plate was kept on ice all the time. • 7. After seeding the tumor pieces, plates were incubated in a 37° C. cell culture incubator without medium for 10 minutes in order for the Matrigel to solidify. • 8. Endothelial Growth Medium (0.5 ml) was added to each well and incubated at 37° C. with 5% CO2. Treatment was not added until the new endothelial cells was grown out of the tumor or were larger than 3 mm in diameter. This usually takes 4 days for the LL2 Lewis lung cancer model and 7 days for the CT26 colon cancer model. For human tumor models, the growth time is typically 2-3 weeks, depending on the tumor type. Media was changed every 4 days during prolonged culture. Typically, when the tumor tissue grows to 2 mm in diameter, it was good for drug testing. A size of about 3 mm in diameter can make visualization easier. • 9. When the assay was ready to be analyzed for cell death (e.g., 48 hours after drug addition), the dye mixture was prepared by mixing 6 μl of green dye to stain live cells (5 mg/ml Fluorescein diacetate or FDA in DMSO) with 30 μl of red dye (2.5 mg/ml Propidium iodide or PI in PBS) to stain dead cells in an Eppendorf tube. The FDA dye needs to be stored frozen in a −20° C. freezer because it has a labile ester bond. • 10. 1 μl of the dye mixture was added to each well of the 24-well dish. It is usually preferred to do one 24-well dish at a time given the amount of time needed to take pictures (the green dye is not as stable in the cells in the long term). • 11. The dish was gently rocked a few times to mix the dye with the media in the wells and incubate the dish at 37° C. for 10 min (too long incubation can make the green signal too intense). • 12. Each well was washed with 0.5 ml of sterile PBS and then 0.5 ml of phenol red free SFM was added to each well. Alternatively 0.5 ml of regular Endothelial Cell Growth Media can be added to each well if this well needs to be continuously maintained after the experiment. • 13. An inverted microscope using the 2× objective lens was used to observe morphological changes in the experimental wells. • 14. […]

[2] = system: LL/2 lung cancer tumor endothelial cells; test: Lung LL2 ex vivo model of tumor angiogenesis; format: cell-based, mouse; conditions: for 48 hrs (morphology observations) / Cell death: 20 μm; for 48 hrs (morphology observations): LL/2 tumor endothelial cells; for Cell death: drug treatment for two days, ratio of red area to total endothelial cell area; for cytotoxicity at 20 µM: Mus musculus, Endothelial cell, 48 h, read-out: Cell death
How it was run: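 Live/dead imaging with FDA and PI, taken e.g. 48 h post-drug under fixed channel settings, measures treatment effects on endothelial cells sprouting from Lewis lung tumor explants. Explants were seeded in Matrigel drops and grown ~4 days in endothelial growth medium, 37 °C, 5% CO2, before dosing.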

Compound	48 hrs (morphology observations after 48 hours) [1]	cytotoxicity at 40 µM [1] [%]	48 hrs (morphology observations) [2]	Cell death [2] [%]	cytotoxicity at 20 µM [2] [%]
CN1CCCN(c2c(S(=O)(=O)c3ccc([N+](=O)[O-])cc3)cnc3ccc(OC(F)(F)F)cc23)CC1 [Compound 60]	0	5			
CCCCOc1ccc2ncc(S(=O)(=O)c3ccc(OC)c(OC)c3)c(N(CC)CC)c2c1 [Compound 123]	0	20			
CCCCN(CCCC)c1c(S(=O)(=O)c2ccc(OC)c(OC)c2)cnc2ccc(SC)cc12 [Compound 124]	0	20			
CCOC(=O)c1ccc2ncc(S(=O)(=O)c3ccc(CC)cc3)c(N3CCC(O)(c4ccc(CC)cc4)CC3)c2c1 [Compound 128]	0	10			
CCc1ccc(C2(O)CCN(c3c(S(=O)(=O)c4ccc(OC)cc4)cnc4ccc(OC(F)(F)F)cc34)CC2)cc1 [Compound 129]	0	0			
CCOC(=O)c1ccc2ncc(S(=O)(=O)c3ccc(CC)cc3)c(N3CCC(N4CCC(O)CC4)CC3)c2c1 [Compound 130]	0	40			
CCOC(=O)c1ccc2ncc(S(=O)(=O)c3ccc(CC)cc3)c(N3CCCN(CCN(CC)CC)CC3)c2c1 [Compound 131]	** (more than 50% but less than 100% of endothelial cells vesicularize in cell shape)	50			
CCOC(=O)c1ccc2ncc(S(=O)(=O)c3ccc(CC)cc3)c(N3CCC(OCCN(CC)CC)CC3)c2c1 [Compound 132]	* (50% or less of cells vesicularize in cell shape)	40			
CCOC(=O)c1ccc2ncc(S(=O)(=O)c3ccc(CC)cc3)c(N3CCCC(O)C3)c2c1 (centres unmarked) [Compound 135]	0	30			
CCOC(=O)c1ccc2ncc(S(=O)(=O)c3ccc(OC)cc3)c(N3CCC(N4CCCCC4)CC3)c2c1 [Compound 136]	0	30			
CCOC(=O)c1ccc2ncc(S(=O)(=O)c3ccc(OC)cc3)c(N3CCCC(O)C3)c2c1 (centres unmarked) [Compound 137]	0	40			
CCOC(=O)c1ccc2ncc(S(=O)(=O)c3ccc(OC)cc3)c(N3CCC(N4CCC(O)CC4)CC3)c2c1 [Compound 138]	0	20			
CCOC(=O)c1ccc2ncc(S(=O)(=O)c3ccc(OC)cc3)c(N3CCCN(CCN(CC)CC)CC3)c2c1 [Compound 139]	0	40			
CCOC(=O)c1ccc2ncc(S(=O)(=O)c3ccc(OC)cc3)c(N3CCC(OCCN(CC)CC)CC3)c2c1 [Compound 140]	** (more than 50% but less than 100% of endothelial cells vesicularize in cell shape)	60			
CCOC(=O)c1ccc2ncc(S(=O)(=O)c3ccc(OC)cc3)c(N3CCCN(C)CC3)c2c1 [Compound 144]	0	30			
CCc1ccc(S(=O)(=O)c2cnc3ccc(OC(F)(F)F)cc3c2N2CCC(O)(c3ccc(OC)cc3)CC2)cc1 [Compound 145]	0	30			
COc1ccc(S(=O)(=O)c2cnc3ccc(OC(F)(F)F)cc3c2N2CCC(O)(c3cccc(OC)c3)CC2)cc1 [Compound 146]	0	0			

Compound	48 hrs (morphology observations after 48 hours) [1]	cytotoxicity at 40 µM [1] [%]	48 hrs (morphology observations) [2]	Cell death [2] [%]	cytotoxicity at 20 µM [2] [%]
CCCCCCCCCCCCOc1ccc(S(=O)(=O)c2cnc3ccc([S+](C)[O-])cc3c2N2CCC(N3CCN(CCO)CC3)CC2)cc1F (centres unmarked) [Compound 362]			*** (more than 50% but less than 100% of endothelial cells vesicularize in cell shape)	20	
CCCCCCCCCCCCOc1ccc(S(=O)(=O)c2cnc3ccc([S+](C)[O-])cc3c2N2CCC(N3CCC(N4CCCCC4)CC3)CC2)cc1F (centres unmarked) [Compound 363]			*** (more than 50% but less than 100% of endothelial cells vesicularize in cell shape)	30	
CCCCCCCCCCCCCCOc1ccc(S(=O)(=O)c2cnc3ccc([S+](C)[O-])cc3c2N2CCC(N3CCC(N4CCCC(O)C4)CC3)CC2)cc1F (centres unmarked) [Compound 364]			*** (more than 50% but less than 100% of endothelial cells vesicularize in cell shape)		30
CCCCCCCCCCCCCCOc1ccc(S(=O)(=O)c2cnc3ccc([S+](C)[O-])cc3c2N2CCC(N3CCN(CCO)CC3)CC2)cc1F (centres unmarked) [Compound 365]			*** (more than 50% but less than 100% of endothelial cells vesicularize in cell shape)	20	
CCCCCCCCCCCCCCOc1ccc(S(=O)(=O)c2cnc3ccc([S+](C)[O-])cc3c2N2CCC(N3CCC(N4CCCCC4)CC3)CC2)cc1F (centres unmarked) [Compound 366]			0	10	
CCCCCCCCCCCCOc1ccc(S(=O)(=O)c2cnc3ccc([S+](C)[O-])cc3c2N2CCC(N3CCC(N4CCCC(O)C4)CC3)CC2)cc1F (centres unmarked) [Compound 367]			0		5
CCCCCCCCCCCCCCOc1ccc(S(=O)(=O)c2cnc3ccc([S+](C)[O-])cc3c2N2CCC(N3CCC(N4CCN(CCO)CC4)CC3)CC2)cc1F (centres unmarked) [Compound 368]				20	
CCCCCCCCCCCCOc1ccc(S(=O)(=O)c2cnc3ccc([S+](C)[O-])cc3c2N2CCC(N3CCC(N4CCN(C)CC4)CC3)CC2)cc1F (centres unmarked) [Compound 370]				20	
CCCCCCCCCCCCCCOc1ccc(S(=O)(=O)c2cnc3ccc([S+](C)[O-])cc3c2N2CCC(N3CCC(N4CCN(C)CC4)CC3)CC2)cc1F (centres unmarked) [Compound 371]			*** (more than 50% but less than 100% of endothelial cells vesicularize in cell shape)	30	
CCCCCCCCCCCCOc1ccc(S(=O)(=O)c2cnc3ccc([S+](C)[O-])cc3c2N2CCC(N3CCC(N4CCC(O)CC4)CC3)CC2)cc1F (centres unmarked) [Compound 372]				20	
CCCCCCCCCCCCCCOc1ccc(S(=O)(=O)c2cnc3ccc([S+](C)[O-])cc3c2N2CCC(N3CCC(N4CCC(O)CC4)CC3)CC2)cc1F (centres unmarked) [Compound 373]			* (50% or less of cells vesicularize in cell shape)	20	
CCCCCCCCCCCCOc1ccc(S(=O)(=O)c2cnc3ccc([S+](C)[O-])cc3c2N2CCC(N3CCC(N4CCC(O)CC4)CC3)CC2)cc1 (centres unmarked) [Compound 374]				20	
CCCCCCCCCCCCCCOc1ccc(S(=O)(=O)c2cnc3ccc([S+](C)[O-])cc3c2N2CCC(N3CCC(N4CCC(O)CC4)CC3)CC2)cc1 (centres unmarked) [Compound 375]			* (50% or less of cells vesicularize in cell shape)	50	
CCCCCCCCCCCCCCCCOc1ccc(S(=O)(=O)c2cnc3ccc([S+](C)[O-])cc3c2N2CCC(N3CCN(CCO)CC3)CC2)cc1 (centres unmarked) [Compound 376]			0	10	
CCCCCCCCCCCCCCCCOc1ccc(S(=O)(=O)c2cnc3ccc([S+](C)[O-])cc3c2N2CCC(N3CCC(N4CCCCC4)CC3)CC2)cc1 (centres unmarked) [Compound 377]			0	10	
CCCCCCCCCCCCCCCCOc1ccc(S(=O)(=O)c2cnc3ccc([S+](C)[O-])cc3c2N2CCC(N3CCC(N4CCCC(O)C4)CC3)CC2)cc1 (centres unmarked) [Compound 378]			*** (more than 50% but less than 100% of endothelial cells vesicularize in cell shape)	30	
